In PubChem BioAssay AID1963858 (Molecular Pharmacology Branch, DTP, NCI, 2024):

Test system: HOP-62 multicell spheroids with HUVEC/MSC, viability
Assay: Anticancer human tumor HOP-62 cell line growth inhibition [KRAS2];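 note: viability read after a week of compound exposure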;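 for viability, T/C: 100% = DMSO vehicle-treated spheroids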
Conditions: for IC50: curve of first compound; for viability, T/C: stronger effect = lower value
Summary of the method: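 KRAS-mutant tumor cells were grown as spheroids with HUVEC endothelial cells and human MSCs as stroma. Targeted agents were tested alone and with KRAS pathway inhibitors. Doses started at or near clinical Cmax, or 10 microM, descending half-log.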

[1] = second compound 0.0316 µM, first compound 0.0316 µM
[2] = second compound 0.0316 µM, first compound 0.1 µM
[3] = second compound 0.1 µM, first compound 0.0316 µM
[4] = second compound 0.1 µM, first compound 0.1 µM
[5] = second compound 0.316 µM, first compound 0.0316 µM
[6] = second compound 0.316 µM, first compound 0.1 µM
[7] = second compound 1 µM, first compound 0.0316 µM
[8] = second compound 1 µM, first compound 0.1 µM
[9] = second compound 3.16 µM, first compound 0.0316 µM
[10] = second compound 3.16 µM, first compound 0.1 µM
[11] = second compound 0.0316 µM, first compound 0.316 µM
[12] = second compound 0.0316 µM, first compound 1 µM
[13] = second compound 0.0316 µM, first compound 3.16 µM
[14] = second compound 0.0316 µM, first compound 10 µM
[15] = second compound 0.1 µM, first compound 0.316 µM
[16] = second compound 0.1 µM, first compound 1 µM
[17] = second compound 0.1 µM, first compound 3.16 µM
[18] = second compound 0.1 µM, first compound 10 µM
[19] = second compound 0.316 µM, first compound 0.316 µM
[20] = second compound 0.316 µM, first compound 1 µM
[21] = second compound 0.316 µM, first compound 3.16 µM
[22] = second compound 0.316 µM, first compound 10 µM
[23] = second compound 1 µM, first compound 0.316 µM
[24] = second compound 1 µM, first compound 1 µM
[25] = second compound 1 µM, first compound 3.16 µM
[26] = second compound 1 µM, first compound 10 µM
[27] = second compound 3.16 µM, first compound 0.316 µM
[28] = second compound 3.16 µM, first compound 1 µM
[29] = second compound 3.16 µM, first compound 3.16 µM
[30] = second compound 3.16 µM, first compound 10 µM

Row | Compound | IC50 (second compound 0.0316 µM) [nM] | IC50 (second compound 0.1 µM) [nM] | IC50 (second compound 0.316 µM) [nM] | IC50 (second compound 1 µM) [nM] | IC50 (second compound 3.16 µM) [nM] | viability, T/C [1] [%] | viability, T/C [2] [%] | viability, T/C [3] [%] | viability, T/C [4] [%] | viability, T/C [5] [%] | viability, T/C [6] [%] | viability, T/C [7] [%] | viability, T/C [8] [%] | viability, T/C [9] [%] | viability, T/C [10] [%] | viability, T/C [11] [%] | viability, T/C [12] [%] | viability, T/C [13] [%] | viability, T/C [14] [%] | viability, T/C [15] [%] | also measured
1 | CC(C)n1nc(-c2ccc3oc(N)nc3c2)c2c(N)ncnc21 + C=CC(=O)N1CCN(c2nc(OCC3CCCN3C)nc3c2CCN(c2cccc4cccc(C)c24)C3)CC1CC#N | 0.471 | < 0.316 | < 0.316 | < 0.316 | < 0.316 | 12.1 | 9.28 | 11 | 8.68 | 8.56 | 7.08 | 7.25 | 5.88 | 0.63 | 0.48 | – | – | – | – | – | viability, T/C (second compound 0.0316 µM, first compound 0.000316 µM): 57.1%; viability, T/C (second compound 0.0316 µM, first compound 0.001 µM): 37%; viability, T/C (second compound 0.0316 µM, first compound 0.00316 µM): 23.5%; viability, T/C (second compound 0.0316 µM, first compound 0.01 µM): 17.5%; viability, T/C (second compound 0.1 µM, first compound 0.000316 µM): 36.3%; viability, T/C (second compound 0.1 µM, first compound 0.001 µM): 30.6%; viability, T/C (second compound 0.1 µM, first compound 0.00316 µM): 14.9%; viability, T/C (second compound 0.1 µM, first compound 0.01 µM): 12.8%; viability, T/C (second compound 0.316 µM, first compound 0.000316 µM): 29.9%; viability, T/C (second compound 0.316 µM, first compound 0.001 µM): 19.6%; viability, T/C (second compound 0.316 µM, first compound 0.00316 µM): 14.9%; viability, T/C (second compound 0.316 µM, first compound 0.01 µM): 10.6%; viability, T/C (second compound 1 µM, first compound 0.000316 µM): 23.1%; viability, T/C (second compound 1 µM, first compound 0.001 µM): 16.1%; viability, T/C (second compound 1 µM, first compound 0.00316 µM): 13.3%; viability, T/C (second compound 1 µM, first compound 0.01 µM): 9.5%; viability, T/C (second compound 3.16 µM, first compound 0.000316 µM): 5%; viability, T/C (second compound 3.16 µM, first compound 0.001 µM): 0.34%; viability, T/C (second compound 3.16 µM, first compound 0.00316 µM): 2.87%; viability, T/C (second compound 3.16 µM, first compound 0.01 µM): 0.44%
2 | CCNC(=O)CC1N=C(c2ccc(Cl)cc2)c2cc(OC)ccc2-n2c(C)nnc21 (stereo not drawn) + C=CC(=O)N1CCN(c2nc(OCC3CCCN3C)nc3c2CCN(c2cccc4cccc(C)c24)C3)CC1CC#N | 168 | 37.4 | 437 | < 31.6 | < 31.6 | 82.8 | 62.3 | 51 | 43.6 | 95 | 95.4 | 33.2 | 24.5 | 0.58 | 0.37 | 34.6 | 33.2 | 27.2 | 29.3 | 25.1 | viability, T/C [16]: 22.7%; viability, T/C [17]: 18.2%; viability, T/C [18]: 20.6%; viability, T/C [19]: 53.5%; viability, T/C [20]: 45.1%; viability, T/C [21]: 41.5%; viability, T/C [22]: 36.8%; viability, T/C [23]: 20.2%; viability, T/C [24]: 19.2%; viability, T/C [25]: 16.4%; viability, T/C [26]: 16.1%; viability, T/C [27]: 0.12%; viability, T/C [28]: 0.12%; viability, T/C [29]: 0.39%; viability, T/C [30]: 0.19%
3 | O=C(c1cc(Cc2n[nH]c(=O)c3ccccc23)ccc1F)N1CCN(C(=O)C2CC2)CC1 + C=CC(=O)N1CCN(c2nc(OCC3CCCN3C)nc3c2CCN(c2cccc4cccc(C)c24)C3)CC1CC#N | 693 | < 31.6 | < 31.6 | < 31.6 | < 31.6 | 76.6 | 66.2 | 45 | 40.5 | 38.1 | 37.8 | 26.4 | 22.7 | 11.3 | 1.1 | 102 | 35.3 | 34.3 | 27.8 | 33.8 | viability, T/C [16]: 31.4%; viability, T/C [17]: 29%; viability, T/C [18]: 23%; viability, T/C [19]: 35.2%; viability, T/C [20]: 26.4%; viability, T/C [21]: 20.9%; viability, T/C [22]: 18.6%; viability, T/C [23]: 39.3%; viability, T/C [24]: 23.1%; viability, T/C [25]: 21.7%; viability, T/C [26]: 21.4%; viability, T/C [27]: 36.4%; viability, T/C [28]: 6.37%; viability, T/C [29]: 8.8%; viability, T/C [30]: 1.75%
4 | CC1OCC2(CCN(c3cnc(Sc4ccnc(N)c4Cl)c(N)n3)CC2)C1N (stereo not drawn) + C=CC(=O)N1CCN(c2nc(OCC3CCCN3C)nc3c2CCN(c2cccc4cccc(C)c24)C3)CC1CC#N | 69.7 | 36.8 | < 31.6 | < 31.6 | < 31.6 | 54.3 | 49.1 | 53.5 | 29.1 | 40 | 30.7 | 24 | 16 | 4.76 | 1.76 | 27 | 19.5 | 11.9 | 12.7 | 19.9 | viability, T/C [16]: 12.8%; viability, T/C [17]: 11.5%; viability, T/C [18]: 12.2%; viability, T/C [19]: 13.9%; viability, T/C [20]: 10.5%; viability, T/C [21]: 10.2%; viability, T/C [22]: 10.6%; viability, T/C [23]: 11.8%; viability, T/C [24]: 8.98%; viability, T/C [25]: 7.63%; viability, T/C [26]: 7.61%; viability, T/C [27]: 1.12%; viability, T/C [28]: 0.88%; viability, T/C [29]: 0.72%; viability, T/C [30]: 0.51%
5 | CC1COCCN1c1cc(-c2ccnn2C)c2ccnc(-c3ccn[nH]3)c2n1 (stereo not drawn) | – | – | – | – | – | – | – | – | – | – | – | – | – | – | – | – | – | – | – | – | viability, T/C (compound 0.316 µM): 16.9% [middle of 5 runs]; viability, T/C (compound 1 µM): 16.8% [middle of 5 runs]; viability, T/C (compound 3.16 µM): 17.2% [middle of 5 runs]
